US20210251999A1, “Treatment of Conditions Associated With Decreased Folate in Cerebral Spinal Fluid” (priority 2011, published 2021)

Key:
Format in all cases: in vivo, human
[1] = Cerebrospinal folate level in a patient with cerebrospinal folate deficiency (case report, Example 2); settings: patient Example 2; folinic acid 5 mg twice per day; within approximately four months; rose from 32 L (preferred range 40-128)
Protocol: Example 1 was tested for cerebrospinal folate deficiency approximately four months after Example 2's testing. […] Studies have shown that the earlier the anemias associated with cerebrospinal folate deficiency are addressed, the better the adversely impacted individual can overcome more long-term effects of the associated folate deficiency.
After Example 2's diagnosis, Example 2 was placed on 5-methyltetrahydrofolate in the form of folinic acid (5 mg twice per day).

[2] = Clinical improvement of a patient with cerebrospinal folate deficiency (case report, Example 2); settings: patient Example 2; after 5-methyltetrahydrofolate treatment (folinic acid 5 mg twice per day)
Protocol: After Example 2's diagnosis, Example 2 was placed on 5-methyltetrahydrofolate in the form of folinic acid (5 mg twice per day). Within approximately four months, Example 2's cerebrospinal folate levels rose from 32 L (preferred range 40-128) to approximately 88 (above the midpoint of the range). […] Thus, reduced folates are critical.

[3] = Hematological response (reticulocytes) in a hypothyroid neonate after vitamin B12 supplementation (case report, Example 1); settings: patient Example 1 (neonate); additional nutritional supplement containing 2 mcg of vitamin B12
Excerpt: In another example: a patient (later referred to as Example 1, and also a twin of Example 2) suffered from clinical signs of cerebrospinal folate deficiency at birth. Example 1 received infant milk formula that contained vitamin B12. […] It is noted that the multivitamin nutritional supplement was Poly-Vi-Sol. Example 2 received a version of Poly-Vi-Sol that was fortified with iron, but that contained no vitamin B12. It is further noted that neither the version of Poly-Vi-Sol (without the iron fortification) nor the Poly-Vi-Sol (with iron fortification) contained any folate. Thus, the disclosed subject matter addresses the need for Poly-Vi-Sol, and other vitamin supplements that are given to neonates, infants and toddlers, to contain the methods and compositions described herein.
Both Example 1 and Example 2 were treated for iron deficiencies with iron supplements. Example 1 and Example 2 received different nutritional supplementation with respect to vitamin B 12. Although Example 2 did receive the same infant milk formula that Example 1 received, which infant milk formula contained vitamin B 12, Example 2 received less of the infant milk formula than Example 1, and Example 2 received in lieu of the infant milk formula more of the breast milk from the hypothyroid […]. […]

## Nc1nc2c(c(=O)[nH]1)N(C=O)C(CNc1ccc(C(=O)N[C@@H](CCC(=O)O)C(=O)O)cc1)CN2 (stereo partly drawn) [folinic acid, 6(R,S)-5-formyltetrahydrofolate]
[1]
  cerebrospinal folate levels: approximately 88
[2]
  physical, behavioral and social skills: showed improvement in physical, behavioral and social skills

## vitamin B 12
[3]
  hematological response: reticulocytes: increase in reticulocytes, moving from below normal to normal
